Two molecules from article PMC5993284, “Peptide inhibitors of the anaphase promoting-complex that cause sensitivity to microtubule poison” (PLoS ONE, 2018) can be followed below.

One test has as its system APC/C^Cdh1. As to the kind of experiment: APC/C^Cdh1 enzyme assay (ubiquitination of 35S-Pds1). Format: biochemical, Saccharomyces cerevisiae. The settings on record: 220 μM peptide; 35S-Pds1 substrate; time course 0-60 minutes; vs buffer; n = 3. As for the experimental part:
Full-length, radio-labeled protein purifications were preformed as previously described. ^35S-Pds1 was prepared in a 500 μL IVT/T (In Vitro Transcription/Translation) reaction (Promega, USA), which contained 400 μL rabbit reticulocyte lysate, 20 μL of L-^35S-methionine (PerkinElmer, USA), 10 μg of plasmid DNA, and the remaining volume as nuclease-free ddH2O as recommended by the manufacturer. The reaction mixture was incubated for 2 hours at room temperature and gently mixed every 30 minutes. The reaction was added to pre-equilibrated IgG Sepharose beads (GE Healthcare, USA) in Bio-spin disposable chromatography columns (Bio-Rad, USA) for binding for 2 hours at room temperature. To ensure efficient binding, the beads were re-suspended several times every 30 minutes. After binding, the beads were washed with 5 mL wash buffer, containing 200 mM 4-(2-hydroxyethyl)-1-piperazineethanesulfonic acid (HEPES) at pH 8.0, 150 mM NaCl, 10% (v/v) glycerol, and 1 mM dithiothreitol (DTT). The ^35S-Pds1 was cleaved from the beads using TEV (Tobacco Etch Virus) protease in 1x TEV buffer (Invitrogen, USA) for 2 hours at room temperature, and the mixture was re-suspended several times every 30 minutes to promote efficient cleavage. The elution was collected and concentrated by employing an Amicon Ultra filter column (Millipore, Ireland). The concentrated ^35S-Pds1 was collected in a new tube, and stored at -20 °C.
The production of Cdc20 or Cdh1 was prepared by IVT/T reactions, where 16 μL of rabbit reticulocyte lysate, 20 μM L-methionine, 0.4 μg of plasmid DNA, and a volume of nuclease-free ddH2O for a total volume of 20 μL. This freshly synthesized Cdc20 or Cdh1 protein was used directly in all APC/C assays after a 1-hour synthesis reaction at room temperature. The APC/C was purified for enzyme assays from 1 mL of TAP-tagged Cdc16 yeast extract (SCSY51) where extract was mixed with 50 μL 50:50 slurry magnetic beads (Invitrogen, Norway) for 2 hours at 4 °C. After incubation, the beads were washed with 3 mL APC/C wash buffer (200 mM of HEPES, 150 mM of NaCl and 10% (v/v) of glycerol). APC/C bound to IgG magnetic beads was used directly in the enzyme assays.
APC/C assays were performed by adding the reaction contents in following order: 4.3 μL of QAH buffer, 20 μL of rabbit reticulocyte lysate containing Cdc20 or Cdh1 with or without an additional volume of recombinant checkpoint protein(s) or inhibitor peptides, 2.4 μL ubiquitin aldehyde (Boston Biochem, USA), APC/C, 16 μL pre-charged E1/E2/ATP/ubiquitin mix, and 13.3 μL of ^35S-Pds1 with QAH buffer (20 mM HEPES at pH 8.0, 100 mM NaCl, and 1 mM MgCl2). […]

Test [1] concerns budding yeast Saccharomyces cerevisiae cells. In words: Benomyl sensitivity upon over expression in vivo (colony numbers per plate). Format: cell-based. The settings on record: for benomyl sensitivity on over expression (in words): pGAL1-10 over expression with N-terminal NLS, 12.5 μg/mL benomyl, average colony numbers per plate, 5 replicates; for effect of over expression on colony number without benomyl (in words): pGAL1-10 over expression, galactose, no benomyl. Here is the method:
For the production of high quality DNA for in vitro transcription/translation E. coli were grown in 50 mL LB containing 100 μg/mL ampicillin for 12–16 hours at 37 °C. Purified plasmid DNA, which was dissolved with 50 μL ddH2O or DEPC (diethyl pyrocarbonate)-treated water, was measured at OD260/280 and stored at -20 °C (Bioman, Inc., Taiwan). All mutant allele expression plasmids were constructed employing site-directed mutagenesis following the manufacturer’s protocol (Stratagene, USA). Yeast were cultured under standard conditions. For large-scale yeast cultures to purify APC/C, yeast were cultured overnight in 10 mL YPD medium (20 g Dextrose, 20 g peptone, and 10 g yeast extract per liter) at 30 °C. 1.5 L of YPD medium in two Fernbach flasks was inoculated with 1 mL overnight culture and supplemented with 100 μg/mL ampicillin and 100 μg/mL streptomycin to prevent bacterial growth. Cell cycle arrest, collection of yeast cells and yeast cell extractions were all performed as previously described.
There is a long-term interest in identifying APC/C inhibitors that give rise to sensitivity to microtubule poisons in vivo. To determine if a Cdc20 Mad2-binding motif peptide was sufficient to induce a microtubule poison sensitivity phenotype in vivo, the DQ36 and PQ65 peptides were over expressed under the control of a galactose inducible pGAL1-10 promoter that had been integrated as single copy into the yeast genome together with the peptide open reading frames (ORF). The expressed proteins were engineered to contain an N-terminal nuclear localization signal ([…]) along with a short amino acid ‘linker’ in order to target the nuclear pool of the APC/C because yeast undergo a closed mitosis without nuclear envelope breakdown. […] This phenotype was suppressed by mutating the yeast KILR-motif residues RILQY to AAAAA (Fig 7B) providing a direct correlation between our observed in vitro APC/C inhibition that requires the yeast KILR-motif RILQY residues and an in vivo microtubule poison sensitivity phenotype.

Entries after “also recorded” stand apart in the source; their conditions may differ. Ends that are not written are not given here. * marks the point of attachment. Biotin = O=C1N[C@H]2[C@H](CS[C@H]2CCCCC(=O)*)N1

As for “DQ36-mut1: DQ36-mut1 where all 5 RILQY residues were changed to alanine AAAAA (Biotin-DMNKAAAAAMPEPPKCSSLRQKSYIMKKRTHYSYQQ)”, in the test on APC/C^Cdh1, the “inhibition of APC/C^Cdh1 activity (in words)” value is recorded as “displayed a similar loss in the ability to inhibit this APC/C^Cdh1 enzyme activity relative to wild type DQ36”. Also, in test [1], the “benomyl sensitivity on over expression (in words)” value is “The benomyl sensitivity phenotype was not observed” and the “effect of over expression on colony number without benomyl (in words)” value was “no significant difference in colony numbers per plate in the absence of benomyl”.

B1: PQ65: 65 amino acid residue peptide called PQ65 (Cdc20 169–232) (peptide, UniProt P26309 169-232, looked up, fragment)
chain: PPNASPISHLRAQTKIVFKQNVAEACGLDMNKRILQYMPEPPKCSSLRQKSYIMKKRTHYSYQQ
On to B1, for which, in the test on APC/C^Cdh1, the “inhibition of APC/C^Cdh1 activity (in words)” value is reported as “observed to inhibit APC/C^Cdh1; also recorded: a significant level of APC/C^Cdh1 inhibition was observed”. Also, in test [1], the “benomyl sensitivity on over expression (in words)” value was “induced a significant sensitivity to benomyl; also recorded: leads to sensitivity to the microtubule poison benomyl” and the “effect of over expression on colony number without benomyl (in words)” value is “no change in colony number or colony morphology was observed; also recorded: no significant difference in colony numbers per plate in the absence of benomyl”.
